Where two headings read alike, the source gives them in different places.
Assays:
Format in all cases: cell-based
rTRPV1 = target: T1, rTRPV1 (Rattus norvegicus, UniProt O35433); test: whole-cell voltage clamp, CHO cells expressing rTRPV1; block of odorant-evoked currents
T1 construct: gene Trpv1

rTRPA1 = target: T2, rTRPA1 (Rattus norvegicus, UniProt Q6RI86); test: whole-cell voltage clamp, CHO cells expressing rTRPA1; block of odorant-evoked currents
T2 construct: gene Trpa1

rTASK1 (K2P3, KCNK3) = rTASK1 (K2P3, KCNK3) (Rattus norvegicus, UniProt O54912); test: two-electrode voltage clamp, Xenopus oocytes expressing rTASK1, dose-response
Sequence of rTASK1 (K2P3, KCNK3) (O54912 whole entry): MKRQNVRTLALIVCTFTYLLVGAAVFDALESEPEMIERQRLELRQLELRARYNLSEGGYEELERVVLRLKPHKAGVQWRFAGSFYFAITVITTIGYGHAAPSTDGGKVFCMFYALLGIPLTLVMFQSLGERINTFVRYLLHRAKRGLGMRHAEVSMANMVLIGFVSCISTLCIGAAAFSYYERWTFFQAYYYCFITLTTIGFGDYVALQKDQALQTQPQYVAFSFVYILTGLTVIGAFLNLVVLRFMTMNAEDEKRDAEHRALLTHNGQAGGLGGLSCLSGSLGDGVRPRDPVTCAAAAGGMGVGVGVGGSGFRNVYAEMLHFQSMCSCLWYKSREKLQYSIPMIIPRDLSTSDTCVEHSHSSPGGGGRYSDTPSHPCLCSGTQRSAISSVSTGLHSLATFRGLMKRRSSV

T2 sequence (Q6RI86 whole entry): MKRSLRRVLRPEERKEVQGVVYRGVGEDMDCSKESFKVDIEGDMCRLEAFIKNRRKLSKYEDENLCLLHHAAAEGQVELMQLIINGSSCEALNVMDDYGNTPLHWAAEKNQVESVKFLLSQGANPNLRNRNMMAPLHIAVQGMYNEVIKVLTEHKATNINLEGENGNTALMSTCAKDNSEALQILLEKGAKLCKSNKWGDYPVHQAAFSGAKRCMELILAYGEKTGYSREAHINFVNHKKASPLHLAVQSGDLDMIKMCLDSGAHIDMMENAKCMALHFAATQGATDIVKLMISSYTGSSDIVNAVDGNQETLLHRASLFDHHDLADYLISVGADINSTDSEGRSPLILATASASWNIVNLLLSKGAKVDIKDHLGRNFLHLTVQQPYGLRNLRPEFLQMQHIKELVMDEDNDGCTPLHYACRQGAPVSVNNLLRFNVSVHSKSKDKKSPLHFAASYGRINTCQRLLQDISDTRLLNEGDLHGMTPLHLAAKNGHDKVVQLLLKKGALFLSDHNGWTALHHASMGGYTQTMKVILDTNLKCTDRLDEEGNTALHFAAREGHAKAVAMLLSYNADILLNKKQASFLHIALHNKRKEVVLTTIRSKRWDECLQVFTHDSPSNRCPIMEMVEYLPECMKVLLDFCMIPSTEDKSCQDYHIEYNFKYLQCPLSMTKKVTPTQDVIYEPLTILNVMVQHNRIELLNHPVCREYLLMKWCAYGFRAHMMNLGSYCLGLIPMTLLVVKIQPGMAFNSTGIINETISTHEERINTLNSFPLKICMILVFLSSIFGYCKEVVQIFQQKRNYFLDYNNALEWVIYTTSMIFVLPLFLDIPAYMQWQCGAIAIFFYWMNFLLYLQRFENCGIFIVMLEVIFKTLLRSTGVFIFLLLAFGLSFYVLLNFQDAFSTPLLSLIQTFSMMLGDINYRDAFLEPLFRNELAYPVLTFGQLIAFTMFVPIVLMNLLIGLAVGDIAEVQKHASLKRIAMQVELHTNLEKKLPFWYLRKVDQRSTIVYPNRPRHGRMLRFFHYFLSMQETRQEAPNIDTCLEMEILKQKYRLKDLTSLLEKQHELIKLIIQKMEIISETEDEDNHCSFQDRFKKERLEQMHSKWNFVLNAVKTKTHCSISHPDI
T1 sequence (O35433 whole entry): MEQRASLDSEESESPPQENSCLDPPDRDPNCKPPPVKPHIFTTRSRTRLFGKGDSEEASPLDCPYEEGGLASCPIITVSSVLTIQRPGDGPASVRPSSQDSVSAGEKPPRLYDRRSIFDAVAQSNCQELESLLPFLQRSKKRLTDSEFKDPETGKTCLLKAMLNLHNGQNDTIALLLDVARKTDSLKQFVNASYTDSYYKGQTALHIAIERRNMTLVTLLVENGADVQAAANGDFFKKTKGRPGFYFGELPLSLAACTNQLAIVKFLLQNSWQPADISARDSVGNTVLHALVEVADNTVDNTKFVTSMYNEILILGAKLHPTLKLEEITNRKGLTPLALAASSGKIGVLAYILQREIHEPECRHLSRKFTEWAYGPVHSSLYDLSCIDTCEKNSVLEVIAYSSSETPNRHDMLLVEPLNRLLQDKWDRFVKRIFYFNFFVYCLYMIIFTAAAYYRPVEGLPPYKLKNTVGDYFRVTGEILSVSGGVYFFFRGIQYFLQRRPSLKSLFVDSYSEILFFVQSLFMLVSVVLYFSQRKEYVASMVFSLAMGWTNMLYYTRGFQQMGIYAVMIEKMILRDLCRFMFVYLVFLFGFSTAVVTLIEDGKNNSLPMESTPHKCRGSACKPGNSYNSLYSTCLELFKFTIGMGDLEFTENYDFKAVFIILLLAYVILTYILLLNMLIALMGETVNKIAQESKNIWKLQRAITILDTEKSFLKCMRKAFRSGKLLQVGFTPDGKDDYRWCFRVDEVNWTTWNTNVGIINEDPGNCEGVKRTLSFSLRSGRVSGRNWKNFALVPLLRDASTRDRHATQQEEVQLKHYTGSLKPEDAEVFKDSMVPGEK

In the case of `Oc1cc2c(cc1O)CN(C(=S)NCCc1ccc(Cl)cc1)CCC2` [CPZ, capsazepine], the “whole-cell voltage clamp, CHO cells expressing rTRPV1; block of odorant-evoked c” value (rTRPV1) is reported as “Co-administration of CPZ nearly completely inhibited all odorant-evoked outward currents”.

For `CC(C)c1ccc(NC(=O)Cn2cnc3c2c(=O)n(C)c(=O)n3C)cc1` [HC, HC-030031], the “whole-cell voltage clamp, CHO cells expressing rTRPA1; block of odorant-evoked c” value (rTRPA1) was “Co-administration of HC nearly completely inhibited vanillin- and HTPA-evoked outward and inward currents”.

`CC(C)=CCC/C(C)=C/CO` [geraniol] gave an IC50 (rTASK1 (K2P3, KCNK3); read-out: IC50) of 580 ± 90 µM.

`CC(=O)CCc1ccc2c(c1)OCO2` [heliotropyl acetone] gave an IC50 (rTASK1 (K2P3, KCNK3)) of 890 ± 120 µM.

Source: paper PMC3804614, “Transient Receptor Potential Channels Encode Volatile Chemicals Sensed by Rat Trigeminal Ganglion Neurons” (PLoS ONE, 2013)
